Measurements published in ChEMBL document CHEMBL1158352, “Development of CoMFA and CoMSIA models of cytotoxicity data of anti-HIV-1-phenylamino-1H-imidazole derivatives” (Eur J Med Chem, 2009).

Assay: Cytotoxicity against human MT4 cells
Format: cell-based

Which CC50 does the source give for `Cc1[nH]c(=S)n(Nc2cccc(Cl)c2)c1-c1cccc(Cl)c1` here?
The CC50 was 31 µM.

For `Cc1nc(S)n(Nc2cccc3ccccc23)c1-c1ccccc1`, which CC50 is on record?
The CC50 was 12 µM.

For `Cc1[nH]c(=S)n(Nc2ccc(Cl)cc2)c1-c1ccccc1`, which CC50 is on record?
Its CC50 is 135 µM.

For `Cc1[nH]c(=S)n(Nc2ccc(F)cc2)c1-c1ccccc1`, which CC50 is on record?
Its CC50 is 220 µM.

Which CC50 does the source give for `COc1ccc(-c2c(C)[nH]c(=S)n2Nc2cccc(Cl)c2)cc1` here?
The CC50 was 38.7 µM.

For `Cc1[nH]c(=S)n(Nc2cccc(Cl)c2)c1-c1ccc(Cl)cc1`, which CC50 is on record?
The CC50 was 40.8 µM.

Which CC50 does the source give for `Cc1c(-c2ccccc2)nc(S)n1Nc1cccc(Cl)c1` here?
Its CC50 is 50 µM.

For `Cc1[nH]c(=S)n(Nc2cccc(Cl)c2)c1-c1cccc(Br)c1`, which CC50 is on record?
The CC50 was 44 µM.

For `Cc1nc(S)n(Nc2cccc(Cl)c2)c1-c1ccc(Br)cc1`, which CC50 is on record?
The CC50 was 33.2 µM.

Which CC50 does the source give for `Cc1[nH]c(=S)n(Nc2cccc(Cl)c2)c1-c1ccccc1` here?
The CC50 was 66.7 µM.

Which CC50 does the source give for `COC(=O)c1c(C)nc(S)n1Nc1cccc(Cl)c1` here?
Its CC50 is 190 µM.

Which CC50 does the source give for `Cc1cccc(Nn2c(S)nc(C)c2C)c1` here?
The CC50 was 360 µM.

For `Cc1cccc(Nn2c(-c3ccccc3)c(C(C)C)[nH]c2=S)c1`, which CC50 is on record?
The CC50 was 42.7 µM.

For `Cc1ncn(Nc2cccc(Cl)c2)c1-c1cccc(C(=O)O)c1`, which CC50 is on record?
The CC50 was 161 µM.

With `Cc1nc(S)n(Nc2cccc(Cl)c2)c1-c1cccc(C#N)c1` as the compound, how does the CC50 read?
Its CC50 is 99.3 µM.

For `Cc1[nH]c(=S)n(Nc2ccccc2Cl)c1-c1ccccc1`, which CC50 is on record?
The CC50 was 162 µM.

For `Cc1ncn(Nc2ccccc2)c1C`, which CC50 is on record?
The CC50 was 352 µM.

With `Cc1cccc(Nn2cnc(C)c2-c2ccccc2)c1` as the compound, how does the CC50 read?
The CC50 was 27 µM.

For `COC(=O)c1cccc(-c2c(C)ncn2Nc2cccc(Cl)c2)c1`, which CC50 is on record?
Its CC50 is 33.1 µM.

With `Cc1ccc(Nn2c(-c3ccccc3)c(C)[nH]c2=S)cc1C` as the compound, how does the CC50 read?
The CC50 was 55.6 µM.

With `Cc1cccc(Nn2cnc(C)c2-c2cccc(N)c2)c1` as the compound, how does the CC50 read?
The CC50 was 163 µM.

With `COC(=O)c1c(C)ncn1Nc1cccc(Cl)c1` as the compound, how does the CC50 read?
Its CC50 is 107 µM.

With `Sc1nc(-c2ccccc2)c(-c2ccccc2)n1Nc1cccc(Cl)c1` as the compound, how does the CC50 read?
Its CC50 is 36.3 µM.

With `CCc1[nH]c(=S)n(Nc2cccc(C)c2)c1-c1ccccc1` as the compound, how does the CC50 read?
Its CC50 is 53.6 µM.

Which CC50 does the source give for `COC(=O)c1nc(S)n(Nc2cccc(Cl)c2)c1C` here?
The CC50 was 48.8 µM.

Which CC50 does the source give for `Cc1nc(S)n(Nc2ccccc2)c1C` here?
The CC50 was 181 µM.

Which CC50 does the source give for `Cc1ncn(Nc2cccc(Cl)c2)c1C` here?
The CC50 was 214 µM.

For `Cc1nc(S)n(Nc2cccc(Cl)c2)c1C(=O)O`, which CC50 is on record?
Its CC50 is 265 µM.

Which CC50 does the source give for `CCc1[nH]c(=S)n(Nc2cccc(Cl)c2)c1-c1ccccc1` here?
The CC50 was 39 µM.

With `Cc1nc(S)n(Nc2cccc(Cl)c2)c1C` as the compound, how does the CC50 read?
Its CC50 is 259 µM.

For `Cc1ncn(Nc2ccccc2)c1-c1ccccc1`, which CC50 is on record?
The CC50 was 52.1 µM.

For `Cc1[nH]c(=S)n(Nc2ccccc2)c1-c1ccccc1`, which CC50 is on record?
Its CC50 is 191 µM.

With `Cc1cc(C)cc(Nn2c(-c3ccccc3)c(C)[nH]c2=S)c1` as the compound, how does the CC50 read?
Its CC50 is 194 µM.

Which CC50 does the source give for `CSc1ccc(Nn2c(S)nc(C)c2-c2ccccc2)cc1` here?
The CC50 was 53.1 µM.

Which CC50 does the source give for `CCc1ncn(Nc2cccc(C)c2)c1-c1ccccc1` here?
The CC50 was 27.9 µM.

With `Clc1cccc(Nn2cnc3c2CCCC3)c1` as the compound, how does the CC50 read?
Its CC50 is 67.3 µM.

Which CC50 does the source give for `Cc1cccc(Nn2cnc(C)c2-c2cccc(C#N)c2)c1` here?
The CC50 was 44.7 µM.

Which CC50 does the source give for `Cc1nc(S)n(Nc2cccc(Cl)c2)c1-c1cccc(C(=O)O)c1` here?
Its CC50 is 120 µM.

Which CC50 does the source give for `Cc1cccc(Nn2c(S)nc(C)c2-c2cccc(C(=O)O)c2)c1` here?
The CC50 was 187 µM.

Which CC50 does the source give for `Cc1[nH]c(=S)n(Nc2cccc(Br)c2)c1-c1ccccc1` here?
The CC50 was 44.3 µM.

Which CC50 does the source give for `Cc1cccc(Nn2c(-c3ccccc3)c(C)[nH]c2=S)c1` here?
Its CC50 is 88.3 µM.

With `Cc1nc(S)n(Nc2cc(Cl)ccc2Cl)c1-c1ccccc1` as the compound, how does the CC50 read?
The CC50 was 147 µM.

For `Cc1cc(C)cc(Nn2cnc(C)c2-c2ccccc2)c1`, which CC50 is on record?
The CC50 was 20.4 µM.

Which CC50 does the source give for `COC(=O)c1cccc(-c2c(C)nc(S)n2Nc2cccc(Cl)c2)c1` here?
The CC50 was 67.3 µM.

Which CC50 does the source give for `Cc1ccc(Nn2c(-c3ccccc3)c(C)[nH]c2=S)cc1Cl` here?
Its CC50 is 44.3 µM.

For `CCc1ccc(Nn2c(S)nc(C)c2-c2ccccc2)cc1`, which CC50 is on record?
The CC50 was 34.4 µM.

With `Cc1ncn(Nc2ccc(F)cc2)c1-c1ccccc1` as the compound, how does the CC50 read?
Its CC50 is 30.8 µM.

Which CC50 does the source give for `Sc1nc2c(n1Nc1cccc(Cl)c1)CCCC2` here?
Its CC50 is 126 µM.

Which CC50 does the source give for `Cc1nc(S)n(Nc2cccc(Cl)c2)c1-c1cccc(N)c1` here?
Its CC50 is 42.2 µM.

For `Cc1[nH]c(=S)n(Nc2cccc([N+](=O)[O-])c2)c1-c1ccccc1`, which CC50 is on record?
Its CC50 is 48.3 µM.

Which CC50 does the source give for `Cc1ncn(Nc2cccc(Cl)c2)c1-c1cccc(Br)c1` here?
Its CC50 is 16.4 µM.

For `COc1cccc(Nn2cnc(C)c2-c2ccccc2)c1`, which CC50 is on record?
The CC50 was 34.4 µM.

For `Cc1ncn(Nc2cccc(Cl)c2)c1-c1ccccc1`, which CC50 is on record?
The CC50 was 17.5 µM.

Which CC50 does the source give for `Cc1cccc(Nn2c(S)nc(C)c2-c2cccc(C#N)c2)c1` here?
The CC50 was 45.6 µM.

For `Cc1ncn(Nc2cccc(Cl)c2)c1-c1cccc(C#N)c1`, which CC50 is on record?
The CC50 was 36.8 µM.

Which CC50 does the source give for `COc1cccc(Nn2c(S)nc(C)c2-c2ccccc2)c1` here?
The CC50 was 38 µM.

With `Cc1ncn(Nc2cccc(Cl)c2)c1-c1cccc(Cl)c1` as the compound, how does the CC50 read?
Its CC50 is 11.9 µM.

For `Cc1cccc(Nn2cnc(C)c2C)c1`, which CC50 is on record?
Its CC50 is 312 µM.

With `Cc1ncn(Nc2cccc(Cl)c2)c1-c1cccc(N)c1` as the compound, how does the CC50 read?
Its CC50 is 261 µM.

For `Cc1[nH]c(=S)n(Nc2cccc(F)c2)c1-c1ccccc1`, which CC50 is on record?
The CC50 was 109 µM.
